# Legend:
# Assay in all cases: relative viability (nuclei count vs DMSO), 5 days (fraction); higher = more cells survive
# BEN = system: BEN
# How it was run: (§1)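 Lung cancer cell lines were pin-tool dosed in 1536-well plates on the day after seeding, with either a lone drug or a fixed anchor-drug dose plus five library-drug doses (not always all listed) in √10 steps. Nuclei were counted on 4× images after 5 days. Relative viability is the ratio of treated-well to vehicle-well nuclei counts, with each value a median of duplicate plates.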
# NCI-H1792 = system: NCI-H1792
# How it was run: as §1
# NCI-H647 = system: NCI-H647
# How it was run: as §1
# EKVX = system: EKVX
# How it was run: as §1
# NCI-H661 = system: NCI-H661
# How it was run: as §1
# NCI-H596 = system: NCI-H596
# How it was run: as §1
# NCI-H1734 = system: NCI-H1734
# How it was run: as §1
# NCI-H2405 = system: NCI-H2405
# How it was run: as §1
# NCI-H1437 = system: NCI-H1437
# How it was run: as §1
# HCC-366 = system: HCC-366
# How it was run: as §1
# HCC-44 = system: HCC-44
# How it was run: as §1
# NCI-H2170 = system: NCI-H2170
# How it was run: as §1
# HARA = system: HARA
# How it was run: as §1
# NCI-H1355 = system: NCI-H1355
# How it was run: as §1
# LOU-NH91 = system: LOU-NH91
# How it was run: as §1
# SK-LU-1 = system: SK-LU-1
# How it was run: as §1
# LC-2-ad = system: LC-2-ad
# How it was run: as §1
# HCC-827 = system: HCC-827
# How it was run: as §1
# NCI-H2009 = system: NCI-H2009
# How it was run: as §1
# NCI-H2228 = system: NCI-H2228
# How it was run: as §1
# NCI-H2087 = system: NCI-H2087
# How it was run: as §1
# SK-MES-1 = system: SK-MES-1
# How it was run: as §1
structure (smiles),measurement,setting,value
C[C@@H]1CN(CC(=O)Nc2ccc3c(c2)Cc2cccc(-c4cc(=O)cc(N5CCOCC5)o4)c2S3)C[C@H](C)O1 + C[C@@H](Oc1cc(-c2cnn(C3CCNCC3)c2)cnc1N)c1c(Cl)ccc(F)c1Cl [Crizotinib] (partner 1 µM),relative viability,BEN; first compound 0.04 µM,0.812
same,relative viability,BEN; first compound 0.1265 µM,0.82
same,relative viability,BEN; first compound 0.4 µM,0.964
same,relative viability,BEN; first compound 4 µM,0.95
same,relative viability,NCI-H1792; first compound 0.04 µM,0.966
same,relative viability,NCI-H1792; first compound 0.1265 µM,0.921
same,relative viability,NCI-H1792; first compound 0.4 µM,0.959
same,relative viability,NCI-H1792; first compound 4 µM,0.932
same,relative viability,NCI-H647; first compound 0.04 µM,1.04
same,relative viability,NCI-H647; first compound 0.1265 µM,1.09
same,relative viability,NCI-H647; first compound 0.4 µM,1.09
same,relative viability,NCI-H647; first compound 4 µM,0.592
same,relative viability,EKVX; first compound 0.04 µM,0.924
same,relative viability,EKVX; first compound 0.1265 µM,0.947
same,relative viability,EKVX; first compound 0.4 µM,1.13
same,relative viability,EKVX; first compound 4 µM,0.876
same,relative viability,NCI-H661; first compound 0.04 µM,1.07
same,relative viability,NCI-H661; first compound 0.1265 µM,1.01
same,relative viability,NCI-H661; first compound 0.4 µM,1.02
same,relative viability,NCI-H661; first compound 4 µM,0.885
same,relative viability,NCI-H596; first compound 0.04 µM,0.934
same,relative viability,NCI-H596; first compound 0.1265 µM,0.928
same,relative viability,NCI-H596; first compound 0.4 µM,0.983
same,relative viability,NCI-H596; first compound 4 µM,0.964
same,relative viability,NCI-H1734; first compound 0.04 µM,0.762
same,relative viability,NCI-H1734; first compound 0.1265 µM,0.651
same,relative viability,NCI-H1734; first compound 0.4 µM,0.627
same,relative viability,NCI-H1734; first compound 4 µM,0.663
same,relative viability,NCI-H2405; first compound 0.04 µM,0.754
same,relative viability,NCI-H2405; first compound 0.1265 µM,0.855
same,relative viability,NCI-H2405; first compound 0.4 µM,0.893
same,relative viability,NCI-H2405; first compound 4 µM,0.8
same,relative viability,NCI-H1437; first compound 0.04 µM,0.986
same,relative viability,NCI-H1437; first compound 0.1265 µM,0.899
same,relative viability,NCI-H1437; first compound 0.4 µM,0.924
same,relative viability,NCI-H1437; first compound 4 µM,0.778
same,relative viability,HCC-366; first compound 0.04 µM,0.5
same,relative viability,HCC-366; first compound 0.1265 µM,0.532
same,relative viability,HCC-366; first compound 0.4 µM,0.414
same,relative viability,HCC-366; first compound 4 µM,0.414
same,relative viability,HCC-44; first compound 0.04 µM,0.853
same,relative viability,HCC-44; first compound 0.1265 µM,0.828
same,relative viability,HCC-44; first compound 0.4 µM,0.699
same,relative viability,HCC-44; first compound 4 µM,0.526
same,relative viability,NCI-H2170; first compound 0.1265 µM,1.2
same,relative viability,NCI-H2170; first compound 0.4 µM,1.21
same,relative viability,NCI-H2170; first compound 4 µM,1.1
same,relative viability,HARA; first compound 0.04 µM,0.697
same,relative viability,HARA; first compound 0.1265 µM,0.96
same,relative viability,HARA; first compound 0.4 µM,1.07
same,relative viability,HARA; first compound 4 µM,0.988
same,relative viability,NCI-H1355; first compound 0.04 µM,0.955
same,relative viability,NCI-H1355; first compound 0.1265 µM,1.07
same,relative viability,NCI-H1355; first compound 0.4 µM,1.03
same,relative viability,NCI-H1355; first compound 4 µM,1.1
same,relative viability,LOU-NH91; first compound 0.04 µM,0.764
same,relative viability,LOU-NH91; first compound 0.1265 µM,0.752
same,relative viability,LOU-NH91; first compound 0.4 µM,0.948
same,relative viability,LOU-NH91; first compound 4 µM,0.72
same,relative viability,SK-LU-1; first compound 0.04 µM,1.08
same,relative viability,SK-LU-1; first compound 0.1265 µM,0.905
same,relative viability,SK-LU-1; first compound 0.4 µM,0.902
same,relative viability,SK-LU-1; first compound 4 µM,0.605
same,relative viability,LC-2-ad; first compound 0.04 µM,0.386
same,relative viability,LC-2-ad; first compound 0.1265 µM,0.455
same,relative viability,LC-2-ad; first compound 0.4 µM,0.434
same,relative viability,LC-2-ad; first compound 4 µM,0.43
same,relative viability,HCC-827; first compound 0.04 µM,1
same,relative viability,HCC-827; first compound 0.1265 µM,0.817
same,relative viability,HCC-827; first compound 0.4 µM,0.929
same,relative viability,HCC-827; first compound 4 µM,0.983
same,relative viability,NCI-H2009; first compound 0.04 µM,1.05
same,relative viability,NCI-H2009; first compound 0.1265 µM,1.03
same,relative viability,NCI-H2009; first compound 0.4 µM,1.09
same,relative viability,NCI-H2009; first compound 4 µM,0.769
same,relative viability,NCI-H2228; first compound 0.04 µM,0.568
same,relative viability,NCI-H2228; first compound 0.1265 µM,0.394
same,relative viability,NCI-H2228; first compound 0.4 µM,0.283
same,relative viability,NCI-H2228; first compound 4 µM,0.341
same,relative viability,NCI-H2087; first compound 0.04 µM,0.936
same,relative viability,NCI-H2087; first compound 0.1265 µM,0.929
same,relative viability,NCI-H2087; first compound 0.4 µM,0.895
same,relative viability,NCI-H2087; first compound 4 µM,0.748
same,relative viability,SK-MES-1; first compound 0.04 µM,1.08
same,relative viability,SK-MES-1; first compound 0.1265 µM,0.991
same,relative viability,SK-MES-1; first compound 0.4 µM,0.917
same,relative viability,SK-MES-1; first compound 4 µM,0.774
CC(C)Oc1cc(Nc2nc(N[C@@H](C)c3ccc(F)cn3)ncc2Cl)n[nH]1 [AZ23] + CC(C)C[C@H](NC(=O)[C@H](Cc1ccccc1)NC(=O)c1cnccn1)B(O)O [Bortezomib] (partner 0.002 µM),relative viability,BEN; first compound 0.01 µM,0.817
same,relative viability,BEN; first compound 0.03162 µM,1.08
same,relative viability,BEN; first compound 0.3162 µM,0.867
same,relative viability,NCI-H1792; first compound 0.01 µM,1.27
same,relative viability,NCI-H1792; first compound 0.03162 µM,1.12
same,relative viability,NCI-H1792; first compound 0.3162 µM,1.06
same,relative viability,NCI-H647; first compound 0.01 µM,1.41
same,relative viability,NCI-H647; first compound 0.03162 µM,1.16
same,relative viability,NCI-H647; first compound 0.3162 µM,1.12
same,relative viability,EKVX; first compound 0.01 µM,1.52
same,relative viability,EKVX; first compound 0.03162 µM,1.26
same,relative viability,EKVX; first compound 0.3162 µM,1.01
same,relative viability,NCI-H661; first compound 0.01 µM,0.828
same,relative viability,NCI-H661; first compound 0.03162 µM,0.845
same,relative viability,NCI-H661; first compound 0.3162 µM,0.773
same,relative viability,NCI-H596; first compound 0.01 µM,1.17
same,relative viability,NCI-H596; first compound 0.03162 µM,1.06
same,relative viability,NCI-H596; first compound 0.3162 µM,1.1
same,relative viability,NCI-H1734; first compound 0.01 µM,1.02
same,relative viability,NCI-H1734; first compound 0.03162 µM,1.37
same,relative viability,NCI-H1734; first compound 0.3162 µM,1.01
same,relative viability,NCI-H2405; first compound 0.01 µM,0.963
same,relative viability,NCI-H2405; first compound 0.03162 µM,1.02
same,relative viability,NCI-H2405; first compound 0.3162 µM,0.948
same,relative viability,NCI-H1437; first compound 0.01 µM,0.541
same,relative viability,NCI-H1437; first compound 0.03162 µM,0.484
same,relative viability,NCI-H1437; first compound 0.3162 µM,0.569
same,relative viability,HCC-366; first compound 0.01 µM,1.26
same,relative viability,HCC-366; first compound 0.03162 µM,1.34
same,relative viability,HCC-366; first compound 0.3162 µM,1.1
same,relative viability,HCC-44; first compound 0.01 µM,0.88
same,relative viability,HCC-44; first compound 0.03162 µM,1.07
same,relative viability,HCC-44; first compound 0.3162 µM,0.912
same,relative viability,HARA; first compound 0.01 µM,1.04
same,relative viability,HARA; first compound 0.03162 µM,1.1
same,relative viability,HARA; first compound 0.3162 µM,1.27
same,relative viability,NCI-H1355; first compound 0.01 µM,1.33
same,relative viability,NCI-H1355; first compound 0.03162 µM,1.17
same,relative viability,NCI-H1355; first compound 0.3162 µM,1.26
same,relative viability,LOU-NH91; first compound 0.01 µM,0.535
same,relative viability,LOU-NH91; first compound 0.03162 µM,0.546
same,relative viability,LOU-NH91; first compound 0.3162 µM,0.519
same,relative viability,SK-LU-1; first compound 0.03162 µM,1.33
same,relative viability,SK-LU-1; first compound 0.3162 µM,1.26
same,relative viability,LC-2-ad; first compound 0.01 µM,1.16
same,relative viability,LC-2-ad; first compound 0.03162 µM,1.2
same,relative viability,LC-2-ad; first compound 0.3162 µM,1.01
same,relative viability,HCC-827; first compound 0.01 µM,1.16
same,relative viability,HCC-827; first compound 0.03162 µM,1.06
same,relative viability,HCC-827; first compound 0.3162 µM,1.08
same,relative viability,NCI-H2009; first compound 0.01 µM,1.1
same,relative viability,NCI-H2009; first compound 0.03162 µM,1.06
same,relative viability,NCI-H2009; first compound 0.3162 µM,1.21
same,relative viability,NCI-H2228; first compound 0.01 µM,1.49
same,relative viability,NCI-H2228; first compound 0.03162 µM,1.19
same,relative viability,NCI-H2228; first compound 0.3162 µM,0.84
same,relative viability,NCI-H2087; first compound 0.01 µM,1.3
same,relative viability,NCI-H2087; first compound 0.03162 µM,0.962
same,relative viability,NCI-H2087; first compound 0.3162 µM,0.778

# Reference: the supplement of paper PMC10307832
